For experiment [1], the system named is papain-induced allergic airway inflammation. Briefly: Papain-induced allergic airway inflammation, Nmb i.t. Format: in vivo, mouse. As to conditions: papain-challenged mice, Nmb i.t. vs PBS, lung. The protocol: (§1) FIGS. 7A-7I. Nmb treatment is sufficient to suppress allergic airway inflammation. Mice challenged with papain were treated with PBS or Nmb (i.t.) and (A) Lung ILC2s, (B) IL-5+ and IL-13+ ILC2s, and (C) eosinophils were evaluated. […] Mesenteric lymph nodes (MLNs) were isolated on day 7 post-Nb and single cells suspensions were treated with anti-CD3 and anti-CD28 in the presence or absence of Nmb for 48 hours and (E), IL-5 and (F) IL-13 were quantified in cell-free supernatants by ELISA. (F-I), Modified versions of Nmb (see Table 2) were tested for their ability to alter IL-5 and IL-13 production from anti-CD3 and anti-CD28 MLN cells isolated on day 7 post-Nb. P values were determined by two-tailed Student's t-tests. Blue asterisks represent comparisons between media treated controls and native Nmb. Red asterisks represent comparisons between media treated controls and modified version of Nmb as described in Table 2. (*,p<0.05), (**,p<0.01), (***,p<0.001) or (F-I).
A well-established model of papain-induced allergic airway inflammation known to be dependent on ILC2s was utilized (19, 20). Mice treated with papain presented with elevated percentages of ILC2s (FIG. 7A), elevated expression of IL-5 and IL-13 by ILC2s (FIG. 7B) and lung eosinophilia (FIG. 7C). […] Thus, Nmb negatively regulate ILC2 responses both in vivo and in vitro.

Experiment [2] has as its system TH2 cells. Briefly: Anti-CD3/anti-CD28 stimulated lymph node cells (day 7 post-Nb), IL-5/IL-13 ELISA. The class given is cell-based, mouse. The conditions noted are these: LN cells day 7 post-Nb, anti-CD3 and anti-CD28, 48 hours, vs media control. The protocol: as §1
FIGS. 8A-8B. Mesenteric lymph nodes (MLNs) were isolated on day 7 post-Nb and single cells suspensions were treated with anti-CD3 and anti-CD28 in the presence or absence of native Nmb or modified versions of the peptide for 48 hours and (A), IL-5 and (B) IL-13 were quantified in cell-free supernatants by ELISA. P values were determined by two-tailed Student's t-tests. Blue asterisks represent comparisons between media treated controls and native Nmb. Red asterisks represent comparisons between media treated controls and modified version of Nmb as described in Table 2. (*,p<0.05), (**,p<0.01), (***,p<0.001).
At the time points evaluated post-Nb, the majority of the type 2 cytokines are ILC2-derived (14) and any effects Nmb is having on TH2 cell responses may be difficult to detect. To address this, lung-draining LNs were isolated on day 7 post-Nb and stimulated with anti-CD3 and -CD28 to activate T cells in both the presence of absence of recombinant Nmb. LN cells treated with anti-CD3 and -CD28 produced increased amounts of IL-5, and IL-13 (FIGS. 7D, 7E).
Thus, Nmb can be employed to reduce type 2 cytokine-mediated inflammation. Native Nmb is a 10-mer peptide (SEQ ID NO: 1) that operates via its ability to bind the Nmb receptor (15). This example describes the results of an alanine scan to systematically replace various residues of the Nmb with alanine (Table 2) and the resulting ability of the variant Nmb peptides to inhibit type 2 cytokine production by TH2 cells. Further, caps were added to the native form of Nmb (SEQ ID NO: 1) and its bioactivity monitored (FIG. 5A).
(In general: An ELISA detects its analyte on a solid surface through an enzyme-linked reagent.)

As to H2N-GNLWATGHFM-amide [Nmb], in experiment [1], the “papain-induced ILC2 responses” value was “sufficient to reduce” and the papain-induced eosinophilia entry is reported as “sufficient to reduce”. Further, in experiment [2], the “IL-5 production from activated TH2 cells” value is recorded as “significantly reduced” and the “IL-13 production from activated TH2 cells” value is reported as “significantly reduced”. Besides, the “IL-5 production from activated TH2 cells” value in experiment [2] (listed as Native Nmb) is “significantly reduce”. Besides, in experiment [2] (listed as native Nmb), the “IL-5 production from activated TH2 cells” value is on record as “sufficient to reduce” and the “IL-13 production from activated TH2 cells” value was “sufficient to reduce”.

The values are drawn from US20260174829A1, “METHODS OF REDUCING TYPE 2 CYTOKINE-MEDIATED INFLAMMATION USING NEUROMEDIN PEPTIDES” (Rutgers, The State University of New Jersey, priority 2018, published 2026).
